Consider one compound from patent publication EP2511272B1, “Synthetic analogues of abscisic acid with anti-inflammatory and insulin release stimulation effects on human cells” (Universita' degli Studi di Genova, priority 2011, dated 2012).

For the experiment, the system named is human granulocytes. The experiment in a line: Determination of intracellular cAMP levels (inhibition of ABA-induced cAMP increase). Format: cell-based. The protocol: Human granulocytes, after being incubated overnight (ON) in DMEM/F12 supplemented with 10% of foetal bovine serum (FCS), penicillin (50 units/ml) and streptomycin (50 µg/ml) (DMEM/F12 complete), were centrifuged at 200xg for 5 min and were then resuspended in HBSS (Hanks' Balanced Salt Solution) with calcium and magnesium (15 x 10^6 cells /200 µl) and preincubated for 5 minutes at 25 °C in the presence of 10 µM of phosphodiesterase inhibitor 4-[(3-butoxy-4-methoxyphenyl)-methyl]-2-imidazolidinone (Ro-20-1724). Two hundred (200) µl of suspension were then drawn and were incubated for 1 minute with 1 µM ABA (Sigma-Aldrich) either alone, or in the presence of decreasing concentrations (from 50 µM to 0.01 nM) of test compounds obtained according to the preceding examples. The reaction was terminated by the addition of 13 µl of perchloroacetic acid (PCA) to the end concentration of 0.6 M at 4 °C.
The cell lysates were centrifuged for 5 min at 17,000 x g at 4 °C and the supernatant was adjusted at pH 7.5 with 3 M potassium carbonate (K2CO3). The reaction led to the development of gas CO2 and the formation of a white precipitate of potassium perchlorate (KClO4), which was removed by a 5-minute centrifugation at 17,000xg at 4 °C.
Intracellular concentration of cAMP was determined by means of the competitive radioimmunological test [^3H]cAMP assay system (Amersham, GE Healthcare), following manufacturer's instructions..
The experiments were carried out three times, in triplicate.
Tests were carried out on human granulocytes according to the above explained procedure, in which the production of cAMP was compared to a group of control cells in case of treatment with ABA 1 µM and with ABA 1 µM + tested compound 50 µM.

pIC50: −log10 of the molar value.

As for `CC(=C/C(=O)O)/C=C/C1(O)C(C)(C)CC(=O)C2OC21C` (single isomer, unassigned) [Example 1, trans, 2'α,3'α-dihydro-2'α,3'α-epoxyabscisic acid], for the setting “ABA 1 µM + tested compound 50 µM, read-out: inhibition (production of cAMP)”, the inhibition at 50 µM came to 100%. The compound also gave an inhibition at 10 pM (cAMP increase induced by 1 µM ABA, compound 0.01 nM) of 0%. The compound further showed an inhibition at 0.0001 µM (cAMP increase induced by 1 µM ABA, compound 0.1 nM) of 25%. The same compound showed an inhibition at 0.001 µM (cAMP increase induced by 1 µM ABA, compound 1 nM) of 57%. The same compound had an inhibition at 0.1 µM (cAMP increase induced by 1 µM ABA, compound 100 nM) of 100%. This compound also returned an inhibition at 1 µM (cAMP increase induced by 1 µM ABA, compound 1 µM) of 100%. Under “cAMP increase induced by 1 µM ABA, compound 5 µM”, the inhibition at 5 µM came to 100%. This compound showed an inhibition at 10 µM (cAMP increase induced by 1 µM ABA, compound 10 µM) of 100%. The compound further showed a pIC50 (increase in cAMP concentration induced by 1 µM ABA) of approximately 9.00.
